{
  "source": "patent US20250305018A1",
  "about": "“SYNTHESIS OF GLYCOSYLATED HYDROXYTRYPTAMINE COMPOUNDS AND METHODS OF THEIR USE” (Cy Biopharma AG, priority 2022, published 2025)",
  "key": {"[1]": {"experiment": "Pharmacokinetic experiment in mice, plasma concentrations by LC-MS/MS", "type": "in vivo, C57Bl/6J mice", "conditions": "higher doses, oral, compared to psilocybin", "protocol": "(§1) In a pharmacokinetic experiment in C57Bl/6J mice (3 animals per timepoint; schedule shown below) two example compounds, Cy1 (4-HO-EPT glycoside) and Cy2 (4-HO-DMT glycoside) were dosed at two different concentrations (20 mg/kg dose shown here) and the parent compounds and their de-glycosylated forms, 4-HO-EPT and psilocin (4-HO-DMT), respectively, were measured by LC-MS/MS in plasma and brain tissue samples. For comparison, psilocybin was dosed at 1.5 mg/kg orally and plasma and brain tissue concentrations of psilocin (4-HO-DMT) were measured. Samples were collected at four or five different timepoints (from 10-minutes post dosing up to 6-hours post dosing) following the test article administration.\n(§2) Results are reported in ng/mL for the concentration in plasma and in ng/g tissue for the concentration measured in brain samples.\n(§3) Results: The graphs in FIG. 35, FIG. 36, FIG. 37, and FIG. 38 display the time course of concentrations of compounds as indicated. For each time point the data for the individual animals are plotted."}, "[2]": {"experiment": "Pharmacokinetic experiment in mice, brain tissue concentrations by LC-MS/MS", "type": "in vivo, C57Bl/6J mice", "conditions": "higher doses, oral, compared to psilocybin", "protocol": "as §1, §2, §3"}},
  "data": [
    {"smiles": "CCCN(CC)CCc1c[nH]c2cccc(O[C@@H]3O[C@H](CO)[C@@H](O)[C@H](O)[C@H]3O)c12", "note": "[Cy1, 4-HO-EPT glycoside]", "values": [
      {"measurement": "period of exposure, plasma", "setting": "[1]", "result": "extended"},
      {"measurement": "period of exposure, brain", "setting": "[2]", "result": "extended"}
    ]}
  ]
}
